What all share (type): cell-based
The test system of one assay is proteus vulgaris OX 19US. As to the kind of experiment: MIC against proteus vulgaris OX 19US. The following applies: OX19US; proteus vulgaris OX 19US; read-out: MIC. An excerpt: (§1) Now, for illustrating the excellent pharmacological effects of the compounds of this invention, the values of MIC (γ/ml) of the compounds against various bacteria are shown in the following table, the compounds of this invention are shown by example numbers.
2. proteus vulgaris OX 19US

In assay [1] the test system is Pseudomonas ovalis IAM 1002. As to the kind of experiment: MIC against Pseudomonas ovalis IAM 1002. The following applies: Pseudomonas putida, IAM1002; Pseudomonas ovalis IAM 1002; read-out: MIC.
Text: as §1
6: Pseudomonas ovalis IAM 1002

Assay [2] relates to micrococcus flavus ATCC 10240. As to the kind of experiment: MIC against micrococcus flavus ATCC 10240. The settings on record: ATCC10240; micrococcus flavus ATCC 10240; read-out: MIC.
Text: as §1

For assay [3], the system named is staphylococcus Shimanishi. As to the kind of experiment: MIC against staphylococcus Shimanishi. The settings on record: staphylococcus Shimanishi; read-out: MIC.
Text: as §1
17. staphylococcus Shimanishi

Assay [4] has as its system escherichia coli Kauffman 0-1. The assay can be described thus: MIC against escherichia coli Kauffman 0-1.
Text: as §1
7: escherichia coli Kauffman 0-1

In assay [5] the test system is bacillus megatherium 10778. As to the kind of experiment: MIC against bacillus megatherium 10778. The settings on record: bacillus megatherium 10778; read-out: MIC.
Text: as §1

For assay [6], the system named is Bacillus subtilis ATCC 6633. The assay can be described thus: MIC against Bacillus subtilis ATCC 6633. The following applies: ATCC6633; Bacillus subtilis ATCC 6633; read-out: MIC.
Text: as §1
14: Bacillus subtilis ATCC 6633

The subject of assay [7] is Klebsiella pneumoniae ATCC 10031. The assay can be described thus: MIC against Klebsiella pneumoniae ATCC 10031. The settings on record: ATCC10031.
Text: as §1
8: Klebsiella pneumoniae ATCC 10031

Another assay has as its system Proteus vulgaris OXK US. The assay can be described thus: MIC against Proteus vulgaris OXK US.
Text: as §1
1: Proteus vulgaris OXK US

A further assay has as its system salmonella enteritidis. As to the kind of experiment: MIC against salmonella enteritidis. The following applies: Salmonella enterica.
Text: as §1
10: salmonella enteritidis

The test system of assay [8] is staphylococcus aureus 209P. As to the kind of experiment: MIC against staphylococcus aureus 209P. The settings on record: read-out: MIC.
Text: as §1
16: staphylococcus aureus 209P

In assay [9] the test system is pseudomonas aeruginosa 99 (Gentamycin resistant). The assay can be described thus: MIC against pseudomonas aeruginosa 99 (Gentamycin resistant).
Text: as §1
5: pseudomonas aeruginosa 99 (Gentamycin resistant)

In assay [10] the test system is Shigella flexnori 2a 1675. As to the kind of experiment: MIC against Shigella flexnori 2a 1675. The settings on record: 2A1675.
Text: as §1

Assay [11] has as its system pseudomonas aeruginosa ATCC 8689. The assay can be described thus: MIC against pseudomonas aeruginosa ATCC 8689. The following applies: ATCC8689; pseudomonas aeruginosa ATCC 8689; read-out: MIC.
Text: as §1
4: pseudomonas aeruginosa ATCC 8689

Assay [12] concerns proteus mirabilis IFM OM-19. The assay can be described thus: MIC against proteus mirabilis IFM OM-19. The following applies: IFMOM19.
Text: as §1
3. proteus mirabilis IFM OM-19

The subject of the next assay is Staphylococcus Onuma. The assay can be described thus: MIC against Staphylococcus Onuma.
Text: as §1

The next assay deals with Shigella sonnei II 37148. The assay can be described thus: MIC against Shigella sonnei II 37148. The following applies: II37148.
Text: as §1

In a further assay the test system is salmonella typhi H901W. As to the kind of experiment: microbe, parasite or virus in culture. The following applies: Salmonella enterica.
The mark [13] stands for this setting: escherichia coli Kauffman 0-1, read-out: MIC.
The mark [14] stands for this setting: Klebsiella pneumoniae ATCC 10031, read-out: MIC.
The mark [15] stands for this setting: Proteus vulgaris OXK US, read-out: MIC.
The mark [16] stands for this setting: pseudomonas aeruginosa 99 (Gentamycin resistant), read-out: MIC.

Structures are written as SMILES. ≈ marks a conversion by molar mass, not a printed value. Like-named read-outs stand apart in the source and are kept apart here.

On to `CC(=O)OCC1=C(C(=O)O)N2C(=O)[C@@H](NC(=O)[C@H](N)c3ccccc3)[C@H]2SC1` [Cephaloglycin, reference compound], for which the MIC in the assay on proteus vulgaris OX 19US is 100 µg/mL (≈ 247 µM); in assay [1] it was above 100 µg/mL; in [2] it was 0.3 µg/mL (≈ 0.74 µM); in assay [3], 3 µg/mL (≈ 7.4 µM); in [4] (setting [13]), 100 µg/mL (≈ 247 µM); in [5], 1 µg/mL (≈ 2.47 µM). Moreover, the MIC in assay [6] was 0.3 µg/mL (≈ 0.74 µM); in [7] (setting [14]), 25 µg/mL (≈ 61.7 µM); in the assay on Proteus vulgaris OXK US (setting [15]), 25 µg/mL (≈ 61.7 µM); with salmonella enteritidis (salmonella enteritidis, read-out: MIC), 3 µg/mL (≈ 7.4 µM); in assay [8] it was 1 µg/mL (≈ 2.47 µM); in assay [9] (Pseudomonas aeruginosa) it was above 100 µg/mL. For the same molecule, the MIC in [10] is 3 µg/mL (≈ 7.4 µM); in [11], above 100 µg/mL; in assay [12], 100 µg/mL (≈ 247 µM); with Staphylococcus Onuma (Staphylococcus Onuma, read-out: MIC) it was 3 µg/mL (≈ 7.4 µM); with Shigella sonnei II 37148, 10 µg/mL (≈ 24.7 µM); with salmonella typhi H901W, 3 µg/mL (≈ 7.4 µM).

Turning to `Cn1nnnc1SCC1=C(C(=O)O)N2C(=O)C(NC(=O)C(NC(=O)c3cccnc3)c3ccccc3)C2SC1` (stereo not drawn) [Example C-1, 7-(α-nicotinoylamido-α-phenylacetamido)-3-(1-methyl-1H-tetrazle-5-ylthiomethyl)-Δ^3-cephem-4-carboxylic acid, reference compound], the MIC in [1] was above 100 µg/mL; in [2], 1.56 µg/mL (≈ 2.75 µM); in assay [4] (setting [13]), 50 µg/mL (≈ 88.2 µM); in [5], 3.13 µg/mL (≈ 5.52 µM); in assay [6] it was 3.13 µg/mL (≈ 5.52 µM); in [7] (setting [14]), 12.5 µg/mL (≈ 22.1 µM). Moreover, the MIC with Proteus vulgaris OXK US (setting [15]) was 3.13 µg/mL (≈ 5.52 µM); in [9] (setting [16]), above 100 µg/mL; in assay [10], 50 µg/mL (≈ 88.2 µM); in [11] it was above 100 µg/mL; in [12], 12.5 µg/mL (≈ 22.1 µM); in the assay on Shigella sonnei II 37148 it was 100 µg/mL (≈ 176 µM). For the same molecule, the MIC in the assay with salmonella typhi H901W is above 100 µg/mL.

Turning to `Cc1nnc(SCC2=C(C(=O)O)N3C(=O)C(NC(=O)C(NC(=O)c4cccnc4)c4ccccc4)C3SC2)s1` (centres unmarked) [Example C-2, reference compound], the MIC is above 100 µg/mL in assay [1]; 1.56 µg/mL (≈ 2.68 µM) in [2]; 100 µg/mL (≈ 172 µM) in assay [4] (setting [13]); 3.13 µg/mL (≈ 5.37 µM) in assay [5]; 1.56 µg/mL (≈ 2.68 µM) in assay [6]; 12.5 µg/mL (≈ 21.5 µM) in assay [7] (setting [14]). Moreover, the MIC in the assay on Proteus vulgaris OXK US (setting [15]) is 6.25 µg/mL (≈ 10.7 µM); in assay [9] (setting [16]), above 100 µg/mL; in assay [10] it was 50 µg/mL (≈ 85.8 µM); in assay [11] it was above 100 µg/mL; in [12], 25 µg/mL (≈ 42.9 µM); in the assay with Shigella sonnei II 37148 it was 100 µg/mL (≈ 172 µM). The molecule further displayed an MIC against salmonella typhi H901W above 100 µg/mL.

`Cc1nnc(SCC2=C(C(=O)O)N3C(=O)[C@@H](NC(=O)Cn4cnnn4)[C@H]3SC2)s1` [Cephazolin, reference compound]: the MIC in the assay with proteus vulgaris OX 19US was 25 µg/mL (≈ 55 µM); in assay [1], above 100 µg/mL; in [2], 0.19 µg/mL (≈ 0.418 µM); in assay [3] it was 0.78 µg/mL (≈ 1.72 µM); in assay [4] (Escherichia coli), 1.56 µg/mL (≈ 3.43 µM); in assay [5] it was 0.19 µg/mL (≈ 0.418 µM). For the same molecule, the MIC in assay [6] is 0.19 µg/mL (≈ 0.418 µM); in assay [7] (Klebsiella pneumoniae), 1.56 µg/mL (≈ 3.43 µM); against Proteus vulgaris OXK US (Proteus vulgaris), 3.13 µg/mL (≈ 6.89 µM); in the assay on salmonella enteritidis (ENTERITIDIS), 1.56 µg/mL (≈ 3.43 µM); in assay [8] it was 0.19 µg/mL (≈ 0.418 µM); in [9] (setting [16]) it was above 100 µg/mL. For the same molecule, the MIC was 1.56 µg/mL (≈ 3.43 µM) in assay [10]; above 100 µg/mL in [11]; 6.25 µg/mL (≈ 13.8 µM) in assay [12]; 1.56 µg/mL (≈ 3.43 µM) against Staphylococcus Onuma (Staphylococcus); 1.56 µg/mL (≈ 3.43 µM) in the assay on Shigella sonnei II 37148; 1.56 µg/mL (≈ 3.43 µM) against salmonella typhi H901W.

Source of the values: US4036834A, “Derivatives of 7-(α-hydroxy-substituted pyridyl carboxamido-α p h Δ^3 -cephem-4-carboxylic acid” (Yamanouchi Pharmaceutical Co., Ltd., priority 1974, dated 1977).
